The results in this text go back to patent publication US8703789B2, “Compositions incorporating sesamin-class compounds and vitamin B1 class compounds” (Suntory Holdings Limited, priority 2007, dated 2014).

This assay has as its system Balb/c male mice kept immersed in water (stress from sleep deprivation). As to the kind of experiment: Water immersion sleep deprivation test, weight-loaded swimming; critical swimming time = time to nose first submerged for at least 10 seconds (Examples 1 and 3). The following applies: for anti-fatigue action: fatigue animal models.

Structures can show the parent of a compound that is named as a salt.

Excerpt: The anti-fatigue action in the present invention, or its effectiveness as “anti-fatigue agents” can be verified by such a method as measuring the swimming time in a water immersion sleep deprivation test. Mice that have been kept in an environment such as water immersion where they are unable to have a good sleep or take a rest position so they cannot have a physical or mental rest are forced to swim under a weight load and the critical swimming time (e.g., the time it takes for the mouse to have its nose first submerged in the water for a period of ten seconds or longer or the time it takes for the mouse to have its nose finally submerged in the water (and incapable of rising up to its surface again)) is measured to confirm the degree of their fatigue. Since this is an animal model for physical or mental fatigue, an extension of the swimming time as achieved by administering it with the test substance means the verification of resistance to fatigue, as exemplified by prevention or relief of physical and/or mental fatigue or any accompanying muscle or other pains, a sufficient increase in body strength to extend the time to total exhaustion, and maintenance of physical vigor in the tired model.
The anti-fatigue effect was evaluated by the following partial modification of the method of Tanaka et al. (Neuroscience, Let. 352, 159-162, 2003): Balb/c male mice (8-week old) were purchased from Japan SLC, Inc. and conditioned in a test environment for a week, and the animals that had grown normally were subjected to the test. They were divided into five groups, as identified in Table 1, such that each group consisted of 10 animals and had the same average body weight. […] Four of those five groups were water immersion groups under stress from sleep deprivation, which were kept in breeding cages, not on paper chips but in tap water (23° C.) supplied to a depth of 7 mm, thereby depriving the mice of sleep. During a two-day immersion in water to deprive sleep, the mice were administered orally with the associated test samples for two days on a one-dose-a-day basis. Of the two test samples, the sesamin-class compounds were dissolved in olive oil and the thiamin in distilled water. The order of administration was the thiamin followed by the sesamin-class compounds; as controls, distilled water and olive oil were administered orally.
After two days of keeping under immersion in water or normal keeping, each mouse was fitted with a weight at the tail which corresponded to 8% of its body weight, and was allowed to swim in a water tank of 18 cm^φ that was filled with water to a depth of 30 cm; the time it took for each mouse to have its nose first submerged in the water for a period of at least 10 seconds was measured as the critical swimming time. […] The degree by which the administration of the test samples (sesamin-class compounds and/or vitamin B1 class compound) could shorten the critical swimming time was measured to evaluate the anti-fatigue action of the test samples.
The anti-fatigue action from independent administration of vitamin B1 class compound was evaluated as in Example 1, except that the mice were divided into nine groups as identified in Tables 3 and 4.

`Cc1ncc(C[n+]2csc(CCO)c2C)c(N)n1` [vitamin B1 class compound, thiamine hydrochloride]: the critical swimming time result is, setting by setting: (Example 1, FIG. 1, 50 mg/kg vitamin B1 class compound oral, once a day for two days (comparative group 2) vs comparative group 1) “no recognizable change in critical swimming time”; (Example 3, FIG. 3, 5 mg/kg vitamin B1 class compound alone (reference group 1) vs comparative group 7) “comparable”; (Example 3, FIG. 3, 10 mg/kg vitamin B1 class compound alone (reference group 2) vs comparative group 7) “comparable”; (Example 3, FIG. 3, 25 mg/kg vitamin B1 class compound alone (reference group 3) vs comparative group 7) “comparable”; (Example 3, FIG. 4, 50 mg/kg vitamin B1 class compound alone (reference group 4) vs comparative group 8) “comparable”; (Example 3, FIG. 4, 100 mg/kg vitamin B1 class compound alone (reference group 5) vs comparative group 8) “longer”. Also, the anti-fatigue action result (only vitamin B1 class compound orally, 5 to 10 mg/kg (FIG. 3)) is listed as “no anti-fatigue action was observed”; the anti-fatigue action result (vitamin B1 class compound independently, 5 mg/kg (FIGS. 3 and 4)) is given as “no anti-fatigue action was observed”; the anti-fatigue action entry (vitamin B1 class compound independently, 10 mg/kg (FIGS. 3 and 4)) is reported as “no anti-fatigue action was observed”; the anti-fatigue action entry (vitamin B1 class compound independently, 25 mg/kg (FIGS. 3 and 4)) is “no anti-fatigue action was observed”; the anti-fatigue action result (vitamin B1 class compound independently, 50 mg/kg (FIGS. 3 and 4)) is “no anti-fatigue action was observed”; the anti-fatigue action result (vitamin B1 class compound independently, 100 mg/kg (FIGS. 3 and 4)) is listed as “enhanced”.
